# Test results reported in patent US10723711B2, “1,1,1-trifluoro-3-hydroxypropan-2-yl carbamate derivatives and 1,1,1-trifluoro-4-hydroxybutan-2-yl carbamate derivatives as MAGL inhibitors” (PFIZER INC., priority 2015, dated 2020).
# Counter-ions that a name gives are not always drawn. Like-named read-outs stand apart in the source and are kept apart here.
# Target: T1, human recombinant Monoacylglycerol Lipase (Homo sapiens, UniProt Q99685)
# T1 sequence (Q99685 1-303): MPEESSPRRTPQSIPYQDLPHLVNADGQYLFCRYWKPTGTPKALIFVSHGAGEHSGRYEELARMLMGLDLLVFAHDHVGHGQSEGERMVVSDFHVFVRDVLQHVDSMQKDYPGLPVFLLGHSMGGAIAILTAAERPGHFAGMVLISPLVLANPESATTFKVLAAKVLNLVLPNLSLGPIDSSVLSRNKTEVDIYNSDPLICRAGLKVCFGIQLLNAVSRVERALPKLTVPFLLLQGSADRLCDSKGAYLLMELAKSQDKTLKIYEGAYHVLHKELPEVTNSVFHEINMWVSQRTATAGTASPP
# Assay: MAGL inhibition enzymatic assay, fluorogenic substrate 7-HCA, IC50 at T=0 min or after 30 minute incubation (T=30 min)
# Format: biochemical
# Settings: geometric mean of 2-4 determinations unless otherwise indicated
# Method: An equal volume of 7-HCA in assay buffer with 10% DMSO was added either immediately (T=0 min) or after a 30 minute incubation (T=30 min) to initiate the reaction. […] After these dilutions, the final concentration of the test compound ranged from 3 μM to 0.03 nM. […] IC50 values were generated based on a four parameter fit model using ABASE software from IDBS.
# [1] = T = 0 min (substrate added immediately), read-out: MAGL (T = 0 min) IC50
# [2] = T = 30 min (30 minute incubation), read-out: MAGL (T = 30 min) IC50
IC50 [1] [nM],IC50 [2] [nM],SMILES
1470,77,"O=C(OC(CO)C(F)(F)F)N1CCC(c2ccn(C3CCOCC3)n2)CC1 (stereo not drawn) [Example 38, 1,1,1-trifluoro-3-hydroxypropan-2-yl 4-[1-(tetrahydro-2H-pyran-4-yl)-1H-pyrazol-3-yl]piperidine-1-carboxylate]"
> 3000,> 1680,O=C(O[C@H](CO)C(F)(F)F)N1CCC2(CC1)CN(S(=O)(=O)CCCN1CCCC1)CCO2 [Example 54]
1700,161,"O=C(O[C@H](CO)C(F)(F)F)N1CCC2(CC1)CN(CC1CCCOC1)CCO2 (single isomer, unassigned) [Example 5]"
385,32,O=C(O[C@H](CO)C(F)(F)F)N1CCC2(CC1)CC(c1cccnc1)CO2 (mixture of isomers) [Example 122]
1860,157,"O=C(O[C@H](CO)C(F)(F)F)N1CCC2(CC1)CC(n1cccn1)CO2 (single isomer, unassigned) [Example 104]"
423,50,O=C(O[C@H](CO)C(F)(F)F)N1CCC2(CC1)CCN(C(=O)c1ccccn1)C2 [Example 128]
368,35,"O=C(O[C@H](CO)C(F)(F)F)N1C[C@@H]2CN(S(=O)(=O)c3ccc(F)c(F)c3)C[C@@H]2C1 [Example 13, (2R)-1,1,1-Trifluoro-3-hydroxypropan-2-yl (3aR,6aS)-5-[(3,4-difluorophenyl)sulfonyl]hexahydropyrrolo[3,4-c]pyrrole-2(1H)-carboxylate]"
> 3000,474,"O=C(O[C@H](CO)C(F)(F)F)N1CCC2(CC1)CC(Oc1ccccn1)CO2 (single isomer, unassigned) [Example 129]"
524,49,"CCC1CN(S(=O)(=O)c2ccc(F)cc2)CC2(CCN(C(=O)O[C@H](CO)C(F)(F)F)CC2)O1 (stereo partly drawn) [Example 18, (2R)-1,1,1-Trifluoro-3-hydroxypropan-2-yl 2-ethyl-4-[(4-fluorophenyl)sulfonyl]-1-oxa-4,9-diazaspiro[5.5]undecane-9-carboxylate]"
> 3000,> 1230,CN(C1COC2(CCN(C(=O)OC(COP(=O)(O)O)C(F)(F)F)CC2)C1)S(=O)(=O)c1ccccc1 (stereo not drawn) [Example 148]
1970,153,"CN(C1COC2(CCN(C(=O)O[C@H](CO)C(F)(F)F)CC2)C1)S(=O)(=O)C1CCOCC1 (single isomer, unassigned) [Example 117]"
> 2750,598,C#Cc1ccc(-n2ccc([C@H]3[C@@H]4CN(C(=O)O[C@@H](CO)C(F)(F)F)C[C@@H]43)n2)cc1 [Example 82]
857,71,O=C(O[C@H](CO)C(F)(F)F)N1CCC(CN(Cc2ccc(F)cc2)C2CCOCC2)CC1 [Example 50]
1580,166,O=C(O[C@H](CO)C(F)(F)F)N1CCC2(CCCN(Cc3ccc(F)cc3)C2)CC1 [Example 41]
220,28,O=C(O[C@H](CO)C(F)(F)F)N1CCC2(CC1)CN(Cc1ccc(F)cc1)C(=O)O2 [Example 72]
951,110,"O=C1COC2(CCN(C(=O)O[C@H](CO)C(F)(F)F)CC2)CN1Cc1ccc(F)cc1 [Example 17, (2R)-1,1,1-Trifluoro-3-hydroxypropan-2-yl 4-(4-fluorobenzyl)-3-oxo-1-oxa-4,9-diazaspiro[5.5]undecane-9-carboxylate]"

SMILES,IC50 [1] [nM],IC50 [2] [nM]
CCOP(=O)(OCC)OC[C@@H](OC(=O)N1CCC2(CC1)CN(S(=O)(=O)c1ccc(F)cc1)CCO2)C(F)(F)F [Example 88],> 3000,> 3000
"O=C(O[C@H](COP(=O)(O)O)C(F)(F)F)N1CCC2(CC1)CN(S(=O)(=O)c1ccc(F)cc1)CCO2 [Example 33, (2R)-3,3,3-Trifluoro-2-[({4-[(4-fluorophenyl)sulfonyl]-1-oxa-4,9-diazaspiro[5.5]undec-9-yl}carbonyl)oxy]propyl phosphate, (bis)-L-lysine salt]",> 3000,> 3000
